According to patent US12016948B2, “Micromotors and nanomotors for gastrointestinal diagnosis and treatment applications” (The Regents of the University of California, priority 2017, dated 2024):
In brackets after ≈: the same amount, converted by molar mass.

Test system: H. pylori Sydney strain 1 (HPSS1)
Assay: In vitro bactericidal activity against H. pylori
Type: cell-based
Conditions: Helicobacter pylori; kills 3 logs (99.9%) of bacteria; samples pretreated in 0.1 N HCl 1 h; 24 h incubation; read-out: minimal bactericidal concentration (MBC)
Experimental: To mimic the gastric environment, for example, samples were treated in 0.1 N HCl for 1 h prior to incubation with bacteria. This also ensured the dissolution of micromotors and consecutive drug release. […] Specifically, it was determined that the minimal bactericidal concentration (MBC) values of the samples, defined as the minimal concentration of an antimicrobial agent that kills 3 logs (99.9%) of the bacteria. […] Moreover, bare Mg-based micromotors with corresponding amount of motors were used as negative controls. […] Overall, FIG. 13D verifies that the activity of the loaded drug was not compromised compared to free drug. The example findings validate the potential use of these drug-loaded micromotors for therapeutic applications. In Vitro Anti-H. pylori Activity. H. pylori Sydney strain 1 (HPSS1) was cultured from frozen stock and routinely maintained on Columbia agar supplemented with 5% (vol/vol) laked horse blood at 37° C. under microaerobic conditions (e.g., 10% CO2, 85% N2, and 5% 02). For example, broth cultures of H. pylori were prepared by subculturing fresh colonies from agar plates into Brain heart infusion (BHI) supplemented with 5% fetal bovine serum (FBS) and incubated overnight at 37° C. under microaerobic conditions with moderate reciprocal shaking. […] The plates were cultured for 4 days before the colony-forming unit (CFU) of H. pylori was quantified. […]

SMILES: CC[C@H]1OC(=O)[C@H](C)[C@@H](O[C@H]2C[C@@](C)(OC)[C@@H](O)[C@H](C)O2)[C@H](C)[C@@H](O[C@@H]2O[C@H](C)C[C@H](N(C)C)[C@H]2O)[C@](C)(OC)C[C@@H](C)C(=O)[C@H](C)[C@@H](O)[C@]1(C)O [free CLR, clarithromycin]
- MBC: 0.25 µg/mL (≈ 0.334 µM)
